Measurements reported in patent US20260373148A1, “5-FLUOROURACIL DERIVATIVE AND ANTI-TUMOR USE THEREOF” (SICHUAN UNIVERSITY, priority 2023, published 2026).
“Also recorded” adds a separate entry of the source.

What was measured:
[1] = tested on: squamous cell carcinoma cells HN30, HN12, Cal-27, and HSC-3; assay: Inhibitory effect of compounds on the proliferation of squamous cell carcinoma cells HN30, HN12, Cal-27, HSC-3 (CCK-8 assay); type: cell-based; details: in words, 48 hours; for inhibitory effect on the proliferation of tumor cells: HN30, HN12, Cal-27, HSC-3, 0, 1.25, 2.5, 5, 10 μM
Description: (§1) Squamous cell carcinoma cell lines: HN30, HN12, Cal-27, HSC-3.
(§2) Test compounds: Compounds 3a, 3b, 3c; Compound 1 (i.e., 5-fluorouracil).
(§3) The experimental procedure was as follows: All four tumor cell lines were cultured in a standardized incubator at 37 °C with 5% CO2. Cells in logarithmic growth phase were digested, counted, and seeded onto 96-well plates at 3000 cells/well. They were then cultured overnight in the incubator. The test compounds were prepared into a stock solution with DMSO at a concentration of 10 mM, and were diluted sequentially (0, 1.25, 2.5, 5, 10 μM) before treating the cells. The control group was treated with the highest concentration of DMSO. The cells were cultured for additional 48 hours in the incubator, and the effect of each compound on the proliferation of the four tumor cell lines was assessed using CCK-8 assay. Meanwhile, the experimental results of compound 3a and compound 1 were analyzed to obtain their IC50 values, and the effects of both compounds on tumor cell proliferation were compared.

Cal27 cells = assay: Inhibition of proliferation of Cal27 squamous cell carcinoma cells (CCK-8 assay); type: cell-based; details: Homo sapiens, CAL-27, 48 hours, 0, 1.25, 2.5, 5, 10 μM, read-out: IC50 values against Cal27 cells
Description: as §1, §2, §3

OSCC cells = details: in words; Heilongjiang Medicine and Pharmacy, February 2009; cited from earlier work
HN30 cells = assay: Inhibition of proliferation of HN30 squamous cell carcinoma cells (CCK-8 assay); type: cell-based; details: 48 hours, 0, 1.25, 2.5, 5, 10 μM, read-out: IC50 values against HN30 cells
Description: as §1, §2, §3

| SMILES | inhibitory effect on the proliferation of tumor cells [1] | IC50 (Cal27 cells) [µM] | induction of apoptosis in OSCC cells (OSCC cells) | IC50 (HN30 cells) [µM] | IC50 value compared with compound 1 ([1]; compound 3a versus compound 1, FIGS. 2 and 3 (HN30 and Cal27)) |
| --- | --- | --- | --- | --- | --- |
| O=c1[nH]cc(F)c(=O)[nH]1 [Compound 1, 5-fluorouracil] | higher anti-tumor activity in a higher concentration range | 22.8 | can induce apoptosis in OSCC cells | 21.7 | – |
| O=C(CCn1cc(F)c(=O)n(CCC(=O)Nc2ccc(C34CC5CC(CC(C5)C3)C4)cc2)c1=O)Nc1ccc(C23CC4CC(CC(C4)C2)C3)cc1 [Compound 3a] | significantly better inhibitory effect than 5-fluorouracil; also recorded: significantly higher than that of compounds 1, 3b, and 3c; also recorded: significantly better than that of 5-fluorouracil | 6.54 | – | 7.09 | significantly lower than that of compound 1 |
| O=C(CCn1cc(F)c(=O)[nH]c1=O)Nc1ccc(C23CC4CC(CC(C4)C2)C3)cc1 [Compound 3b] | did not show significant improvement | – | – | – | – |
| O=C(CCn1c(=O)[nH]cc(F)c1=O)Nc1ccc(C23CC4CC(CC(C4)C2)C3)cc1 [Compound 3c] | did not show significant improvement | – | – | – | – |
